Biological target: T1, Organic anion transporter 1 (hOAT1) (Homo sapiens, UniProt Q4U2R8)
T1 construct: gene SLC22A6
T1 sequence (Q4U2R8 1-563): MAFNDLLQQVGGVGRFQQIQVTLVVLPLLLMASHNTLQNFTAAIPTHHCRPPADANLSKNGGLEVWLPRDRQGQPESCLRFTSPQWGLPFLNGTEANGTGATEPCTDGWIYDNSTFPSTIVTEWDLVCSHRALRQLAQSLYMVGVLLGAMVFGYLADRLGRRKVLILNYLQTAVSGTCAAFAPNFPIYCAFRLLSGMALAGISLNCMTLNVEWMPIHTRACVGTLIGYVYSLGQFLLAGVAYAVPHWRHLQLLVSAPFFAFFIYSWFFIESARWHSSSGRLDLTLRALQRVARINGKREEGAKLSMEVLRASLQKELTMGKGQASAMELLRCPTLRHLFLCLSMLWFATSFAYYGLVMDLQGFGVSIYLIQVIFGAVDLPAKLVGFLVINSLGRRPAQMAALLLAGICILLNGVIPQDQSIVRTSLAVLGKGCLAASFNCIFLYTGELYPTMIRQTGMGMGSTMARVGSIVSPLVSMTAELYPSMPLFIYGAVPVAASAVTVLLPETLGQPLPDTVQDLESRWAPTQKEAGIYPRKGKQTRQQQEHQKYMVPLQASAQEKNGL
Assay: competitive inhibition of 6-carboxyfluorescein uptake in hOAT1-overexpressing HEK293 cells
Assay type: cell-based

CCCCCCCCCCCCCCC(=O)O [Pentadecanoic acid]
IC50: 103 µM

— PMC8102404, “A key role for the transporter OAT1 in systemic lipid metabolism” (The Journal of Biological Chemistry, 2021)
